Experimental data from patent US4857516A, “Coumaran derivatives and their pharmaceutical use” (Takeda Chemical Industries, Ltd., priority 1986, dated 1989).
Each block holds one compound with its values, some of them ahead of it.

What was measured:
[1] = system: generation of HHT in rat platelets; test: Inhibitory effect on the generation of 12-hydroxyheptadeca-5,8,10-trienoic acid (HHT) in rat platelets; format: cell-based; conditions: rat platelet rich plasma; for inhibition at 100 µM: 10^-4 M; for inhibition at 10 µM: 10^-5 M
Procedure: Blood was collected in 3.2 v/v % sodium citrate (0.8 ml for 7.2 ml of blood) from the abdominal aorta of male Wister rats (Jcl, 12 to 15 weeks) anesthesized with pentobarbital. Platelet rich plasma (PRP) was obtained by centrifuging the blood at 800 rpm for 10 min at room temperature. Platelet poor plasma (PPP) was prepared by centrifuging the remaining blood at 3,000 rpm for 10 min. The platelet concentration of PRP was adjusted to 1,000,000/μl with PPP. […]
The reaction was stopped by adding 100 ml of ethanol and the mixture was allowed to stand for 10 min. at room temperature. The reaction mixture was centrifuged at 2,000 rpm for 10 min. and the supernatant obtained was evaporated. To the concentrate, 0.2 ml of 60 v/v % aqueous ethanol was added.
100 μl of this solution was subjected to high performance liquid chromatography for quantitative analysis of HHT. The amount of HHT was determined by measurement of absorbance at 237 nm with a UV absorption monitor.
The inhibitory effect (IE) on the generation of HHT is expressed by (1-b/a)×100, wherein a is the peak height or the peak area corrected with the peak due to the internal standard in the absence of the compound (I) or a pharmaceutically acceptable salt thereof, and b is the peak height or the peak area corrected with the peak due to the internal standard in the compound (I) or a pharmaceutically acceptable salt thereof.

[2] = system: lipid peroxide production in rat brain homogenates; test: Inhibitory action on lipid peroxide production in rat brain homogenates; format: biochemical; conditions: 5 v/v % rat brain homogenate, pH 7.4, 1 hour at 37° C.; read-out: Inhibition (IC50) of lipid peroxide production
Procedure: The male SD rat (12 weeks) brain tissue was extracted under anesthesia after depletion. The extracted brain tissue was used as 5 v/v % homogenate in phosphate buffer (pH 7.4). After incubation of the homogenate for 1 hour at 37° C., the peroxide produced was determined by the thiobarbituric acid method according to the method described in Analytical Biochemistry, 95, 551 (1979).
Before incubation, test compounds were added in 5 v/v % homogenate so that their final concentration becomes 10^-5 M. […]

[3] = molecular target: T1, 5-lipoxygenase (Rattus norvegicus, UniProt P12527); test: Inhibition of 5-lipoxygenase (5-HETE production in RBL-1 cells); format: cell-based; conditions: for inhibition at 1 µM: 10^-6 M; for inhibition at 0.1 µM: 10^-7 M; for inhibition at 0.01 µM: 10^-8 M
T1 construct: endogenous in cells; host or cells: RBL-1 (rat basophilic leukemia cells)
T1 sequence (P12527 1-673): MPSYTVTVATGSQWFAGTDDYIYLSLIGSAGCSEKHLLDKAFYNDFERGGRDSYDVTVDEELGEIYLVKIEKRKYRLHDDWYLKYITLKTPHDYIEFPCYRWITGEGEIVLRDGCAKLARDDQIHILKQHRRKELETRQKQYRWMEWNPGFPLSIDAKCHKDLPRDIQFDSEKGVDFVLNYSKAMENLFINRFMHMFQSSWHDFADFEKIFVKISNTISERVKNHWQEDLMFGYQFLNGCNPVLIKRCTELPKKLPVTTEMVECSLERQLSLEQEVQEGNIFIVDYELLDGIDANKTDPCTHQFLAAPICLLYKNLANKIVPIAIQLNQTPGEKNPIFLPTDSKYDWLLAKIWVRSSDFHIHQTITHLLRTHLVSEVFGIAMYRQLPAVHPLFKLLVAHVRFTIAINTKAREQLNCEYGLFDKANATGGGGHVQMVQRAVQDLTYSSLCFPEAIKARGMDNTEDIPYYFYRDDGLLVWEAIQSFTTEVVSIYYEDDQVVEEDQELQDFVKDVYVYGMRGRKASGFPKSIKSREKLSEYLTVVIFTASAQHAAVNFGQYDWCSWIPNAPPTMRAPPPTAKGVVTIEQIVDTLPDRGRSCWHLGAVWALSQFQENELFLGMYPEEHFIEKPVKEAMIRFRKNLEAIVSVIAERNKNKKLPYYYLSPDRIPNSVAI
Procedure: 10^7 RBL-1 cells (rat basophilic leukemia cells) were suspended in 0.5 ml of MCM (mast cell medium). […] Then 4 ml of ethanol was added, and the mixture was well shaken and kept at room temperature for 10 min.
The mixture was centrifuged for 10 min. (2000 rpm), and the supernatant was separated. The supernatant obtained was concentrated to dryness under reduced pressure. To the residue 0.5 ml of 60 v/v % aqueous methanol was added. One hundred μl of this solution was subjected to high performance liquid chromatography for quantitative analysis of 5-HETE (5-hydroxyeicosatetraenoic acid). The amount of 5-HETE was determined by measurement of the absorbance at 237 nm with a UV absorption monitor.
The inhibitory effect (IE) of production of 5-HETE is expressed by (1-b/a)×100, wherein a is the peak height or the area corrected with the peak due to the internal standard in the absence of the compound (I) or a pharmaceutically acceptable salt thereof, and b is the peak height or peak area corrected with the peak due to the internal standard in the presence of the compound (I) or a pharmaceutically acceptable salt thereof.

[4] = system: excitatory behavior induced by FeCl2 in mice; test: Excitatory behavior induced by spinal intrathecal injection of FeCl2 in mice; format: in vivo, mouse; conditions: 100 mg/kg p.o.
Procedure: Male Slc:ICP mice (5 weeks) were used. Each group consisted of 10 mice. 5 μl of 50 mM FeCl2 in saline was injected into spinal subarchnoid space betwen the 1st sacral and the 6th lumbar segment, the behavioral responses were observed from 15 min. to 1 hr. after the intrathecal injection of FeCl2 and scored as follows.
Score Behavioral responses
0: normal (no abnormal behavior)
1: vigorously biting lower abdomen or lower extremities
(a) extremely biting lower body with rolling
(b) hyperreactivity and agressive to external stmuli
at least one of above three behavioral changes were observed
4: tonic convulsion or paralysis of lower extremities.
The test compounds (100 mg/kg) were orally administered 30 min. prior to FeCl2 injection.

[5] = system: neurological deficits caused by spinal cord compression in rats; test: Functional neurologic impairment induced by spinal cord compression in rats; format: in vivo, rat; conditions: 40 mg/kg, p.o.
Source text: (§1) Male Jcl:Wistar rats, weighing about 350 g at the time of spinal cord compression were used. A spinal cord injury was produced in rats by compressing the spinal cord with a stainless screw of 2.8 mm length and 2 mm diameter at thoracic 11 (T11) level under pentobarbital anesthesia. On the day of the operation, the screw was placed so that the end was just above the subarachnoid membrane of the spinal cord.
(§2) On the following day, the screw was completely tightened to compress the spinal cord without penetrating the subarachnoid membrane. After compression of the spinal cord for 60 min., the screw was removed. Test compounds were given orally 5 min. after the removal of screw.
0; flaccid paralysis, no movement of hind limbs, no response to pinching of tail with foreceps (i.e. movement of fore limbs, biting foreceps, vocalization)
1; no movement of hind limbs, but responds to pinching of tail with foreceps
2; uncoordinated movement (loss of coordination between limbs), but can not support own weight
3; movement with an impairment (general coordination between limbs), but can not support own weight
4; walking with a slight ataxia of the hind limbs, but can support own weight
(§3) The median neurological score of the drug-treated groups were compared with that saline-teated control group. Statistical analysis was done using the Mann-Whitney U-test. The incidence of rats showing urinary incontinence was also compared by the .chi.^2 -test.

[6] = system: neurological deficits in rats with cerebral ischemia; test: Neurological deficits in rats with experimental cerebral ischemia; format: in vivo, rat; conditions: p.o.
Procedure: Male Crj:Wistar rats, that were 7 weeks old at the time of electocauterization of the bilateral vertebral arteries, were used. Electrocauterization of the bilateral vertebral arteries was performed under pentobarbital Na (40 mg/kg, i.p.) anesthesia. Global cerebral ischemia was produced by 20 min. occlusion of both common carotid arteries 24 hr after the permanent electrocauterization of the bilateral vertebral arteries (Pulsinelli W. A. and Brierly J. B., Stroke 10, 267-272 (1979).
The compound of Example 20 was given orally as a single dose immediately after the reperfusion of both carotid arteries.
1; decrease in spontaneous motor activity, piloerection, ptosis, miosis, hyperirritability, slight ataxia
2; moderate to servere ataxia
3; loss of righting reflex, slight convulsions
4; severe convulsions, coma
The median neurological deficit scores of the drug-treated groups were compared with that of saline-treated control. Statistical analysis was done using the Mann-Whitney U-test.

[7] = system: urinary incontinence in rats with spinal cord compression; test: Incidence of rats showing urinary incontinence (spinal cord compression); format: in vivo, rat; parameters: Incidence of rats showing urinary incontinence: unit not given here; conditions: 40 mg/kg, p.o.
Source text: as §1, §2, §3

[8] = day 3, Ex. 7 *p < 0.05, Ex. 20 **p < 0.01

IC50 [2]: 130 nM
inhibition at 1 µM [3]: 92%
inhibition at 0.1 µM [3]: 18%
inhibition at 0.01 µM [3]: 0%
Structure (SMILES): Cc1c(C)c2c(c(C)c1O)C(c1ccccc1)C(C)(C)O2 (stereo not drawn) [Example 6, 5-hydroxy-2,2,4,6,7-pentamethyl-3-phenyl-2,3-dihydrobenzofuran]
inhibition at 100 µM [1]: 49%
inhibition at 10 µM [1]: 7%

Structure (SMILES): Cc1c(C)c2c(c(C)c1O)C(c1ccc(Cl)cc1)C(C)(C)O2 (stereo not drawn) [Example 13]
Score (mean behavioral score) ([4]; 30 min. prior to FeCl2, 0 normal to 5 death): 0.7
Percent inhibition (of mean score) ([4]; vs vehicle p.o.): 83%

IC50 [2]: 220 nM
inhibition at 1 µM [3]: 89%
inhibition at 0.1 µM [3]: 57%
inhibition at 0.01 µM [3]: 16%
Structure (SMILES): Cc1c(C)c2c(c(C)c1O)C(c1cccnc1)C(C)(C)O2 (stereo not drawn) [Example 1, 5-hydroxy-2,2,4,6,7-pentamethyl-3-(3-pyridyl)-2,3-dihydrobenzofuran]
inhibition at 100 µM [1]: 76%
inhibition at 10 µM [1]: 47%

IC50 [2]: 150 nM
inhibition at 1 µM [3]: 91%
inhibition at 0.1 µM [3]: 64%
inhibition at 0.01 µM [3]: 20%
Structure (SMILES): Cc1c(C)c2c(c(C)c1O)C(c1cccnc1)C1(CCCCC1)O2 (stereo not drawn) [Example 3, 5-hydroxy-4,6,7-trimethyl-3-(3-pyridyl)-3H-benzofuran-2-spirocyclohexane]
inhibition at 100 µM [1]: 40%
inhibition at 10 µM [1]: 7%

IC50 [2]: 120 nM
inhibition at 1 µM [3]: 99%
inhibition at 0.1 µM [3]: 22%
inhibition at 0.01 µM [3]: 0%
Structure (SMILES): Cc1c2c(c3ccccc3c1O)OC(C)(C)C2c1cccnc1 (stereo not drawn) [Example 5]
inhibition at 100 µM [1]: 84%
inhibition at 10 µM [1]: 54%

IC50 [2]: 750 nM
inhibition at 1 µM [3]: 91%
inhibition at 0.1 µM [3]: 70%
inhibition at 0.01 µM [3]: 18%
Structure (SMILES): Cc1c(C)c2c(c(C)c1O)C(c1cccnc1)C1(CCCC1)O2 (stereo not drawn) [Example 2]
inhibition at 100 µM [1]: 79%
inhibition at 10 µM [1]: 52%

IC50 [2]: 25 nM
inhibition at 1 µM [3]: 100%
inhibition at 0.1 µM [3]: 42%
inhibition at 0.01 µM [3]: 36%
Structure (SMILES): Cc1c(C)c2c(c(C)c1O)C(c1ccc(C(C)C)cc1)C(C)(C)O2 (stereo not drawn) [Example 20, 5-hydroxy-2,2,4,6,7-pentamethyl-3-(4-isopropylphenyl)-2,3-dihydrobenzofuran]
neurological score (median value) ([5]; day 1, 0 flaccid paralysis to 5 normal gait, Ex. 20 **p < 0.01): 2
neurological score (median value) [5, 8]: 3
neurological score (median value) ([5]; day 7, Ex. 20 **p < 0.01): 4
neurological score (median value) ([5]; day 14, Ex. 20 *p < 0.05): 4
neurological impairment caused by spinal cord compression (in words) ([5]; Table 4(III)): ameliorated the neurological impairment
neurological deficit score (median value) ([6]; 10 mg/kg, day 1, 0 normal to 5 death): 2
neurological deficit score (median value) ([6]; 10 mg/kg, day 2): 2
neurological deficit score (median value) ([6]; 10 mg/kg, day 3, *p < 0.05): 1.5
neurological deficit score (median value) ([6]; 10 mg/kg, day 5, **p < 0.01): 1
neurological deficit score (median value) ([6]; 10 mg/kg, day 7, *p < 0.05): 1
neurological deficit score (median value) ([6]; 10 mg/kg, day 10, **p < 0.01): 0
neurological deficit score (median value) ([6]; 10 mg/kg, day 14): 0
neurological deficit score (median value) ([6]; 40 mg/kg, day 1, 0 normal to 5 death): 2
neurological deficit score (median value) ([6]; 40 mg/kg, day 2): 2
neurological deficit score (median value) ([6]; 40 mg/kg, day 3, **p < 0.01): 1
neurological deficit score (median value) ([6]; 40 mg/kg, day 5, **p < 0.01): 1
neurological deficit score (median value) ([6]; 40 mg/kg, day 7, *p < 0.05): 1
neurological deficit score (median value) ([6]; 40 mg/kg, day 10, *p < 0.05): 0
neurological deficits caused by transient cerebral ischemia (in words) ([6]; 10 and 40 mg/kg): significantly ameliorated the neurological deficits
Incidence of rats showing urinary incontinence ([7]; day 1, Ex. 20 **p < 0.01): 0
Incidence of rats showing urinary incontinence ([7]; day 2, Ex. 20 **p < 0.01): 0
Incidence of rats showing urinary incontinence [7, 8]: 0
Incidence of rats showing urinary incontinence ([7]; day 5, Ex. 20 **p < 0.01): 0
Incidence of rats showing urinary incontinence ([7]; day 7, Ex. 7 *p < 0.05): 7.1
Incidence of rats showing urinary incontinence ([7]; day 10): 7.1
Incidence of rats showing urinary incontinence ([7]; day 14): 7.1
incidence of urinary incontinence (in words) ([7]; Table 4(IV)): reduced the incidence of urinary incontinence

IC50 [2]: 250 nM
inhibition at 1 µM [3]: 98%
inhibition at 0.1 µM [3]: 18%
inhibition at 0.01 µM [3]: 0%
Structure (SMILES): Cc1c(C)c2c(c(C)c1O)C(c1ccccn1)C(C)(C)O2 (stereo not drawn) [Example 4]
inhibition at 100 µM [1]: 29%
inhibition at 10 µM [1]: 9%
